Key:
cortical neurons [1] = assay: Inhibition of [Ca2+]i increases evoked by chemical ischemia (sodium azide/glucose deprivation) in cortical neurons, Fura-2; type: cell-based, rat; conditions: for More effective than DTG in depressing Ca2+ dysregulation: ischemia-induced [Ca2+]i, relative to DTG set to 1
Method: Concentration-response relationship for p-Br-DPG inhibition of [Ca^2+]i increases evoked by chemical ischemia (4 mM azide, 0 glucose). […] Dashed line is fit to the data in FIG. 7, shoing p-Br-DPhG inhibition of acidosis-induced Ca^2+ elevations and is included for comparison.
(§1) The effects of sigma receptors on ischemia-induced changes in intracellular calcium concentrations were studied in cultured cortical neurons from embryonic (E18) rats. Dams were euthanatized by decapitation, uterus removed, and embryos dissected out and placed in isotonic buffer containing 137 mM NaCl, 5 mM KCl, 0.2 mM NaH2PO4, 0.2 mM KH2PO4, 5.5 mM glucose, 6 mM sucrose (pH 7.4 with NaOH). Cortex were excised and minced, and tissue digested in isotonic buffer containing 0.25% trypsin/EDTA for 10 min at 37° C. and added to 3× volume of high glucose culture media (Dulbecco's Modified Eagle Media; Invitrogen, Inc., Carlsbad, Calif.), 10% (v/v) fetal calf serum, 100 U/ml penicillin and 0.1 mg/ml streptomycin. Cells were counted on a hemocytometer, plated (0.5×10^6 cells) on 18 mm coverslips coated with poly-1-lysine, and incubated at 37° C. under a 95% air, 5% CO2 atmosphere. After 24 hr the media was replaced with Neurobasal (Invitrogen, Inc., Carlsbad, Calif.) medium supplemented with B27 (Invitrogen, Inc., Carlsbad, Calif.) and 0.5 mM 1-glutamine to limit astrocyte proliferation in the cultures. Cells were used for studies after 14-21 days in culture.
The in vitro NaN3 chemical ischemia disrupts cell metabolism, which ultimately results in plasma membrane dysfunction and intracellular Ca^2+ dysregulation. Fura-2 dye was used to measure changes in intracellular Ca^2+ in the cells. Ischemia was induced in the absence or presence of the drugs to test directly the cell response to sigma receptor activation under ischemic conditions. […] The level of resulting [Ca^2+]i inhibition was compared to DTG, which was set to a relative [Ca^2+]i, level of 1 as indicated by the dashed line. […]

MCAO rats = conditions: cited from earlier work
Microglia = assay: Microglial migration to ATP in Boyden chamber; type: cell-based; conditions: 4 hrs at 37° C.
Method: FIG. 10 is a graph showing microglial migration for 4 hrs at 37° C. Control media or 100 μM ATP were used in the absence and presence of DTG or p-Br-DPG (labeled BDTG). Asterisks indicate a significant difference between ATP (p<0.001, n=5) and ATP+BDTG 20 μM (p<0.01, n=5) from DMEM. Significance was determined by one-way ANOVA followed by post-hoc Bonferroni tests.
Microglial migration was assayed using a Boyden chamber fitted with a polycarbonate membrane containing 8 μm pores. Microglia (500,000 cells) were placed in the upper chamber and control media or 100 μM ATP were added in the absence and presence of DTG, or various indicated concentrations of p-Br-DPG to the bottom chamber. Microglia were allowed to migrate for 4 hrs at 37° C., and were subsequently stained with DAPI and counted.

cortical neurons [2] = assay: Inhibition of [Ca2+]i increases evoked by acidosis (pH 6.0) in cortical neurons; type: cell-based, rat; conditions: acidosis pH 6.0, cortical neurons; for Kd: n>50, read-out: Kd (Langmuir-Hill fit) for inhibition of [Ca2+]i increases evoked by acidosis
Method: Concentration-response relationship for p-Br-DPG and DTG inhibition of [Ca^2+]i increases evoked by acidosis (pH 6.0).
as §1
(Ringel F, et al. Lactacidosis-induced glial cell swelling depends on extracellular Ca^2+. Neurosci Lett. 2006 May 8; 398(3):306-9. Epub 2006 Feb. 15). p-Br-DPG was characterized against DTG to determine the ability to inhibit [Ca^2+]i dysregulation in cortical neurons. Cells were administered the indicated amounts of either p-BrDPhG or DTG, followed by cellular [Ca^2+]i dysregulation stimulation by acidosis (pH 6.0). […] A dashed line is superimposed, showing the acidosis results from FIG. 7 for comparison.

Sprague-Dawley rats = assay: Permanent middle cerebral artery occlusion (MCAO), infarct volume by Fluoro-Jade staining; type: in vivo, rat; conditions: sacrificed at 96 h
Method: FIG. 9 is a graph showing the data for rats after surgery for permanent middle cerebral arterial occlusion. Rats were treated as indicated at 24, 48, and 72 h and sacrificed at 96 hours. Brain sections were stained with Fluoro-Jade to determine infarct volumes.
11 adult male Sprague-Dawley rats (Harlan, Indianapolis, Ind.) weighing 300 to 350 g were housed in a climate controlled room with water and laboratory chow available ad libidum. Sprague-Dawley rats (300-350 g) were randomly assigned to 1 of 3 groups: MCAO (n=4); MCAO and DTG (n=3); or MCAO and p-Br-DPG (n=4). MCAO surgery was performed as previously reported by Vendrame et al. (Vendrame, et al., Infusion of human umbilical cord blood cells in a rat model of stroke dose-dependently rescues behavioral deficits and reduces infarct volume. Stroke. 2004 October; 35(10):2390-5. Epub 2004 Aug. 19) and originally described by Longa et al. (Longa, et al., Reversible middle cerebral artery occlusion without craniectomy in rats. Stroke. 1989 January; 20(1):84-9). […]
Rats were treated as indicated at 24, 48, and 72 hours after MCAO with vehicle (MCAO), 7.5 mg/kg N,N′-di-p-bromophenyl guanidine (p-Br-DPG) or 7.5 mg/kg 1,3 di-o-tolylguanidine (DTG). […] Stroke-induced damage was quantified using the Fluoro-Jade fluorescence to determine infarct volumes.

[3] = higher p-Br-DPG concentrations or DTG with 100 μM ATP

Row | Kd (cortical neurons [2]) | Kd (cortical neurons [1]; 4 mM azide, 0 glucose, cortical neurons, n>50, read-out: Kd (Langmuir-Hill fit) for inhibition of [Ca2+]i increases evoked by chemical ischemia) | Compound | More effective than DTG in depressing Ca2+ dysregulation (cortical neurons [1]) | Reduction of infarct size (MCAO rats; MCAO rats (Ajmo 2006)) | Reduction of stroke damage (MCAO rats; administered 24 hours after experimental stroke) | Microglia migration (Microglia; [3]) | Infarct volume relative to the MCAO group (Sprague-Dawley rats; 7.5 mg/kg at 24, 48 and 72 h after MCAO, p<0.001) | Efficacy on infarct volume compared with DTG treatment (Sprague-Dawley rats; 7.5 mg/kg each at 24, 48 and 72 h after MCAO) | Microglia migration (Microglia; 20 μM with 100 μM ATP, compared to DMEM) | Effect against [Ca2+]i dysregulation compared with DTG (cortical neurons [2])
1 | – | – | NC(=Nc1ccccc1)Nc1ccccc1 [DPhG] | ~25% | – | – | – | – | – | – | –
2 | 109 µM | – | Cc1ccccc1NC(=N)Nc1ccccc1C [DTG, N,N′-di-o-tolyl guanidine, reference compound] | – | more than 80% | 85% | inhibited the migration | – | – | – | –
3 | 13.5 µM | 2.6 µM | N=C(Nc1ccc(Br)cc1)Nc1ccc(Br)cc1 [p-Br-DPG, N,N′-di-p-bromophenyl guanidine] | ~25% | – | – | inhibited the migration | significantly reduced infarct volume | slightly more efficacious than DTG treatment | significantly increased microglia migration | significantly higher effect against [Ca^2+]i than DTG

Reference: patent US20110201688A1, “N,N'-DI-P-BROMOPHENYL GUANIDINE TREATMENT FOR STROKE AT DELAYED TIMEPOINTS” (UNIVERSITY OF SOUTH FLORIDA, priority 2008, published 2011)
